Several values for one entry are separate records, joined by “and”; a condition that tells them apart may be missing. Identical values can stand only once.
System: Pah^enu2 mice
Assay: Urine amino acid excretion in Pah^enu2 mice after JN-170
Type: in vivo, mouse
Parameters: urine Gln excretion / urine Phe excretion: unit not given here
Conditions: for 12-hour urine Phe excretion (Fig 3c): individual Pah^enu2 mice
Protocol: Male homozygous BTBR-Pah<enu2>/J (Pah^enu2) aged 10–13 weeks were purchased from Jackson Laboratory (no. 002232). Immediately before dosing, each animal’s bladder was manually emptied and a plasma sample was drawn. Animals were dosed by oral gavage with vehicle (10% DMSO, 20% 2-hydroxypropyl-β-cyclodextrin [Sigma-Aldrich]) followed by a 1-week washout prior to dosing with JN-170 at doses ranging from 50 to 250 mg/kg. Following dosing with vehicle or JN-170, animals were individually placed in metabolic cages to collect urine samples. After collection of each urine sample, cages were rinsed with ultra-pure water to recover residual analytes. Blood samples were collected predose as well as 1, 3, 8, 12, and 24 hours after dosing with vehicle or JN-170 into tubes with EDTA as a […], and plasma was separated by centrifuging samples at 2,200g for 5 minutes at 4°C. Throughout the study, mice had access to food and water ad libitum. Plasma and urine samples were stored at –80°C until processing.Ten-week-old male WT C57Bl/6J animals (Si Bei Fu Laboratory Animal Technology Co. Ltd.) were dosed either with vehicle or 50–250 mg/kg JN-170 by oral gavage and blood and urine samples were collected as described. All animals had unrestricted access to food and water during the study; C57Bl/6J were kept on rodent maintenance diet from Beijing Keao Xieli, Pah^enu2 mice were kept on Teklad diet no. T.2018.
Urine and cage-wash samples were vortexed and centrifuged at 3,700g for 5 minutes to remove any solid precipitate. Neat samples and samples diluted 1:10 in water were further diluted 1:10 in crash solution (75% acetonitrile 25% methanol, 0.1% formic acid, 5 mM heavy labeled amino acids) to precipitate proteins. Samples were centrifuged at 3,700g for 5 minutes before the supernatant was transferred into an injection plate. Urine amino acid analysis was carried out using a quadrupole time of flight (QToF) LC-mass spectrometry (QToF-LC-MS) bioanalytical method. A standard curve of 1 mM down to 0.06 μM was used as the calibration curve to which samples were quantified. The amino acid concentrations were calculated with a 1/×2 linear regression over a concentration range of 60 nM to 1,000 μM of the individual amino acids. An Agilent QToF 6545 was operated in an accurate mass full scan range of 100–1,700 m/z positive ions formed by electrospray ionization with a normal phase HILIC chromatographic method. An Agilent InfinityLab Poroshell 120 HILIC-Z, 2.1 × 150 mm, 2.7 μm was used as the analytical column with 10 mM Ammonium Acetate in 0.1% FA as mobile phase A and 10 mM Ammonium Acetate in 95% ACN, 0.1% FA as mobile phase B. At a flow rate of 0.25 mL/min, the binary gradient increased from an initial 100% phase B to 90% phase B over 3 minutes. After 1.5 minutes, the gradient ramped to 80% mobile phase B. At 5.6 minutes into the gradient, mobile phase B ramped from 60% to 0% and held for 2 minutes before returning to initial conditions at 7.5 minutes. The gradient was stopped at 10 minutes.Total urine amino acid amounts were calculated by multiplying urine amino acid concentrations by the urine volume and adding the amount of amino acid recovered in the cage wash, which was calculated by multiplying the cage wash amino acid concentration by the cage wash volume.

[1] = Fig S3b, Pahenu2 mice, individual animals
[2] = Pah^enu2 mice, 0–3 hours after 200 mg/kg

## N#Cc1ccc(-c2noc([C@]3(C(F)(F)F)CCN(C(=O)NCCC4(N)CC4)C3)n2)cc1 [JN-170]
0–3 hours after 200 mg/kg
  urinary excretion of Phe, Pah^enu2 vs WT mice: approximately 60 fold
50 mg/kg vs vehicle
  change in 12 hour urine Arg excretion (Fig 3b): 0.3802 log FC
  change in 12 hour urine Gln excretion (Fig 3b): 1.423 log FC
  change in 12 hour urine Glu excretion (Fig 3b): 0.4771 log FC
  change in 12 hour urine His excretion (Fig 3b): 1.279 log FC
  change in 12 hour urine Lys excretion (Fig 3b): 0.2248 log FC
  change in 12 hour urine Met excretion (Fig 3b): 0.6756 log FC
  change in 12 hour urine Phe excretion (Fig 3b): 1.34 log FC
  change in 12 hour urine Pro excretion (Fig 3b): -0.2483 log FC
  change in 12 hour urine Ser excretion (Fig 3b): 0.9904 log FC
  change in 12 hour urine Thr excretion (Fig 3b): 1.084 log FC
  change in 12 hour urine Trp excretion (Fig 3b): 1.144 log FC
  change in 12 hour urine Tyr excretion (Fig 3b): 1.331 log FC
50 mg/kg
  12-hour urine Phe excretion (Fig 3c): 2329 µg and 2669 µg and 1215 µg and 2142 µg and 1931 µg and 2386 µg
100 mg/kg vs vehicle
  change in 12 hour urine Arg excretion (Fig 3b): 0.4771 log FC
  change in 12 hour urine Gln excretion (Fig 3b): 2.5092 log FC
  change in 12 hour urine Glu excretion (Fig 3b): 0.7782 log FC
  change in 12 hour urine His excretion (Fig 3b): 2.097 log FC
  change in 12 hour urine Lys excretion (Fig 3b): 0.583 log FC
  change in 12 hour urine Met excretion (Fig 3b): 1.421 log FC
  change in 12 hour urine Phe excretion (Fig 3b): 1.508 log FC
  change in 12 hour urine Pro excretion (Fig 3b): 0.2706 log FC
  change in 12 hour urine Ser excretion (Fig 3b): 1.62 log FC
  change in 12 hour urine Thr excretion (Fig 3b): 1.727 log FC
  change in 12 hour urine Trp excretion (Fig 3b): 1.687 log FC
  change in 12 hour urine Tyr excretion (Fig 3b): 1.929 log FC
100 mg/kg
  12-hour urine Phe excretion (Fig 3c): 3398 µg and 3162 µg and 4227 µg and 2980 µg and 2439 µg and 2425 µg
200 mg/kg
  12-hour urinary Phe excretion, mean ± SD: 4,170 ± 1505 μg
  12-hour urine Phe excretion (Fig 3c): 3871 µg and 5519 µg and 1571 µg and 5260 µg and 3572 µg and 5225 µg
200 mg/kg vs vehicle
  change in 12 hour urine Arg excretion (Fig 3b): 0.4472 log FC
  change in 12 hour urine Gln excretion (Fig 3b): 2.528 log FC
  change in 12 hour urine Glu excretion (Fig 3b): 0.7559 log FC
  change in 12 hour urine His excretion (Fig 3b): 2.089 log FC
  change in 12 hour urine Lys excretion (Fig 3b): 0.6206 log FC
  change in 12 hour urine Met excretion (Fig 3b): 1.349 log FC
  change in 12 hour urine Phe excretion (Fig 3b): 1.635 log FC
  change in 12 hour urine Pro excretion (Fig 3b): 0.1887 log FC
  change in 12 hour urine Ser excretion (Fig 3b): 1.594 log FC
  change in 12 hour urine Thr excretion (Fig 3b): 1.712 log FC
  change in 12 hour urine Trp excretion (Fig 3b): 1.74 log FC
  change in 12 hour urine Tyr excretion (Fig 3b): 1.783 log FC
250 mg/kg vs vehicle
  change in 12 hour urine Arg excretion (Fig 3b): 0.6435 log FC
  change in 12 hour urine Gln excretion (Fig 3b): 2.17 log FC
  change in 12 hour urine Glu excretion (Fig 3b): 0.7482 log FC
  change in 12 hour urine His excretion (Fig 3b): 1.862 log FC
  change in 12 hour urine Lys excretion (Fig 3b): 0.7733 log FC
  change in 12 hour urine Met excretion (Fig 3b): 1.454 log FC
  change in 12 hour urine Phe excretion (Fig 3b): 1.613 log FC
  change in 12 hour urine Pro excretion (Fig 3b): 0.0877 log FC
  change in 12 hour urine Ser excretion (Fig 3b): 1.762 log FC
  change in 12 hour urine Thr excretion (Fig 3b): 1.809 log FC
  change in 12 hour urine Trp excretion (Fig 3b): 1.96 log FC
  change in 12 hour urine Tyr excretion (Fig 3b): 1.972 log FC
250 mg/kg
  12-hour urine Phe excretion (Fig 3c): 2655 µg and 3486 µg and 5073 µg and 6377 µg and 3651 µg and 2501 µg
[1]
  urine Gln excretion: 800 and 1688 and 2419 and 1193 and 1615
  urine Phe excretion: 1730 and 2424 and 3033 and 1556 and 1834
[2]
  glutamine excreted in urine, mean ± SD: 1,543 ± 606 μg
  urinary excretion of Phe, mean ± SD: 2,115 ± 608 μg
≥ 200 mg/kg, 12-hour urine, vs vehicle
  increase in urinary Phe excretion: > 40 fold

Source: paper PMC11601558, “SLC6A19 inhibition facilitates urinary neutral amino acid excretion and lowers plasma phenylalanine” (JCI Insight, 2024)
